These results are taken from patent US11339130B1 (Blade Therapeutics, Inc., priority 2016, dated 2022).

One experiment addresses T1, Human Calpain 2/NS1 (Homo sapiens, UniProt P17655).
T1 sequence (P17655 1-700): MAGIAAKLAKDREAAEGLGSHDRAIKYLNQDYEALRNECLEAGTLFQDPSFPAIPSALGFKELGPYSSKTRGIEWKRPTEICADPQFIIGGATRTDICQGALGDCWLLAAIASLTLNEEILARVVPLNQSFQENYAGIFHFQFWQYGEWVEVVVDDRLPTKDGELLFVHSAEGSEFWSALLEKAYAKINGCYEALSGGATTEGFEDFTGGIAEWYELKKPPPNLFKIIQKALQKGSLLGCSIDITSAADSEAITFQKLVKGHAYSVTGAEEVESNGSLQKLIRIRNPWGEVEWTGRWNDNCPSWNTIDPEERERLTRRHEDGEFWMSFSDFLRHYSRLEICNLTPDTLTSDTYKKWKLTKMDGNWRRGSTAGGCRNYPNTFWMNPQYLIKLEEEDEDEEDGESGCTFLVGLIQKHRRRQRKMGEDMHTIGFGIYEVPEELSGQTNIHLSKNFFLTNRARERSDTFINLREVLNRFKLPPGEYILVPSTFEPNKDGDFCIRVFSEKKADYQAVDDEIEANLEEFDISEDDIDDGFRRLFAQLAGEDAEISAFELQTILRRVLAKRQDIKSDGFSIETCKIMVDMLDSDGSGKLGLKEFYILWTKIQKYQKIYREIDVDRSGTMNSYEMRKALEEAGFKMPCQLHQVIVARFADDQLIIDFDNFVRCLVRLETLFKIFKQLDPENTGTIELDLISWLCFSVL
T1 sequence (P04632 1-268 partner): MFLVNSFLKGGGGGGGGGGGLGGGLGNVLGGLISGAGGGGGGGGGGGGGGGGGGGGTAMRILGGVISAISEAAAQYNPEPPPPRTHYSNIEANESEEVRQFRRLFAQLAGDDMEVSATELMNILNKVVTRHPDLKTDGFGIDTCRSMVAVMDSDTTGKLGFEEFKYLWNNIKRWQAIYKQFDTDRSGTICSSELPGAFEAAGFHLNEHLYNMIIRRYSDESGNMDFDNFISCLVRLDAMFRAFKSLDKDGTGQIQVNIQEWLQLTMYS
Briefly: Calpain inhibition continuous fluorescence (FRET) assay, Human Calpain 2/NS1. The class given is biochemical. The conditions noted are these: read-out: Human Calpain 2/NS1 IC50. Summed up:
(§1)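 Buffer 50 mM Tris pH 7.5/100 mM NaCl/1 mM DTT; enzyme + cpd preinc 25C; start w/ FRET substrate + CaCl2; kinetic 490/520 nm, 10 min; slopes 1-5 min; 4-PL IC50.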

In experiment [1] the test system is Calpain activity in SH-SY5Y cells. Briefly: SH-SY5Y + AMC fluorescence assay (Suc-LLVY-AMC substrate). The class given is cell-based. Conditions: read-out: SH-SY5Y + AMC IC50.
The target in another experiment is T2, Human Calpain 1/NS1 (Homo sapiens, UniProt P07384).
T2 sequence (P07384 1-714): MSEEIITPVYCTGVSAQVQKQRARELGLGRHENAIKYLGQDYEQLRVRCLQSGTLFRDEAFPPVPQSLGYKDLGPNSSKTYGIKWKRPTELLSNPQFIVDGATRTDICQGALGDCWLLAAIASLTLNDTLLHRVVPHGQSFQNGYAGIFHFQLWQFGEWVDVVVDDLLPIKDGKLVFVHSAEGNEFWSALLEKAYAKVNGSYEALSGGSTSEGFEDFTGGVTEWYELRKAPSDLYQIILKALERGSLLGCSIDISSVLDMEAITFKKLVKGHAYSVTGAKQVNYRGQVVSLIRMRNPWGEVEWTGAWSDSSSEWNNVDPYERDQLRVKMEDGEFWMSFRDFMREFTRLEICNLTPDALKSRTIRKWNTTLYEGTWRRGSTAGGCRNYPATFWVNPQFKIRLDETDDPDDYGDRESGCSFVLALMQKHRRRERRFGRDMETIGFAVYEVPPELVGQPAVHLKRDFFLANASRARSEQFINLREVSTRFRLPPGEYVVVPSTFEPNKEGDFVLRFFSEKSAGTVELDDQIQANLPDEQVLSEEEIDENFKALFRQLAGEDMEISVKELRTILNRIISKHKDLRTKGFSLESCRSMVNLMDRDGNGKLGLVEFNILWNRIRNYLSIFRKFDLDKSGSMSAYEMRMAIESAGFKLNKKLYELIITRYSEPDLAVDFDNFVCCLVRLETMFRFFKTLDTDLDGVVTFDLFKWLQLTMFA
T2 sequence (P04632 1-268 partner): T1 sequence (P04632 1-268 partner)
Briefly: Calpain inhibition continuous fluorescence (FRET) assay, Human Calpain 1/NS1. Format: biochemical. The conditions noted are these: read-out: Human Calpain 1/NS1 IC50. The method in brief:
as §1

The target in the next experiment is T3, Human Calpain 9/NS1 (Homo sapiens, UniProt O14815).
T3 sequence (O14815 1-690): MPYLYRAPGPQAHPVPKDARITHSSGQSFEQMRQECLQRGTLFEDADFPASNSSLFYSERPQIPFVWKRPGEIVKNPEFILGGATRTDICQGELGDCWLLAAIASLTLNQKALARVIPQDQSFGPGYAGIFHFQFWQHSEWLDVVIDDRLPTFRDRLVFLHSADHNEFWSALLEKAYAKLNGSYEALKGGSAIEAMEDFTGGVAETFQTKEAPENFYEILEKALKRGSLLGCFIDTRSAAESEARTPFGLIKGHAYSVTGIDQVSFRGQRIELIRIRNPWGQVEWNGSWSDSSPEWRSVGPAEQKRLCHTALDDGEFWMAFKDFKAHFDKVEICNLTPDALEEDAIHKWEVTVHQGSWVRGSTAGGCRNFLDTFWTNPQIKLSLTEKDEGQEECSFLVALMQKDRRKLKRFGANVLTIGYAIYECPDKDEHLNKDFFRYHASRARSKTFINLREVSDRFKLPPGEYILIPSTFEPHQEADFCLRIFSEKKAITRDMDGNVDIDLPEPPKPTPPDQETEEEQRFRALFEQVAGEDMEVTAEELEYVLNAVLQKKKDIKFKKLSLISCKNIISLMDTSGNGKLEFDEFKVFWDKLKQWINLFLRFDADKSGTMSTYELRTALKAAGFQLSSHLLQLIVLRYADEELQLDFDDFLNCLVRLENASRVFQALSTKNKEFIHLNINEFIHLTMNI
T3 sequence (P04632 1-268 partner): T1 sequence (P04632 1-268 partner)
Briefly: Calpain inhibition continuous fluorescence (FRET) assay, Human Calpain 9/NS1. The class given is biochemical. Conditions: read-out: Human Calpain 9/NS1 IC50. Summed up: as §1

Experiment [2] has as its system Calpain activity in SH-SY5Y cells (SBDP-150). Briefly: SH-SY5Y Spectrin western blot assay (SBDP-150 breakdown product, A23187-induced). Format: cell-based. Conditions: Homo sapiens, SH-SY5Y cells, read-out: SH-SY5Y Spectrin IC50.
The mark [3] stands for this setting: A23187-induced SBDP-150, western blot.
Setting [4] is: Column D, A23187-induced SBDP-150.

Molecules are shown by their SMILES. Read-outs that look alike come from different tables or passages of the source.

In the case of `Cn1cc(C(=O)NC(Cc2ccccc2)C(=O)C(N)=O)c(-c2cccc(F)c2C(F)(F)F)n1` (stereo not drawn) [Compound 512, N-(4-amino-3,4-dioxo-1-phenylbutan-2-yl)-3-(3-fluoro-2-(trifluoromethyl)phenyl)-1-methyl-1H-pyrazole-4-carboxamide], the IC50 on Human Calpain 2/NS1 is 3 to 10 µM; in experiment [1], under 10 µM; on Human Calpain 1/NS1 it was 3 to 10 µM; on Human Calpain 9/NS1 it was 3 to 10 µM; in experiment [2] (setting [3]), over 25 µM.
On to `NC(=O)C(=O)C(Cc1ccccc1)NC(=O)c1cn(C(F)F)nc1-c1ccccc1F` (stereo not drawn) [Compound 383, N-(4-amino-3,4-dioxo-1-phenylbutan-2-yl)-1-(difluoromethyl)-3-(2-fluorophenyl)-1H-pyrazole-4-carboxamide], for which the IC50 is under 3 µM on Human Calpain 2/NS1; under 10 µM in experiment [1]; under 3 µM at Human Calpain 1/NS1; under 3 µM at Human Calpain 9/NS1; under 10 µM in experiment [2] (setting [3]).
For `NC(=O)C(=O)C(Cc1ccccc1)NC(=O)c1cn(C(F)F)nc1-c1cccc2c1OCO2` (stereo not drawn) [Compound 563, N-(4-amino-3,4-dioxo-1-phenylbutan-2-yl)-3-(benzo[d][1,3]dioxol-4-yl)-1-(difluoromethyl)-1H-pyrazole-4-carboxamide], the IC50 on Human Calpain 2/NS1 is under 3 µM; in experiment [1], under 10 µM; at Human Calpain 1/NS1, under 3 µM; at Human Calpain 9/NS1, under 3 µM; in experiment [2] (setting [3]), under 10 µM.
Take `NC(=O)C(=O)C(Cc1ccccc1)NC(=O)c1cn(C(F)F)nc1-c1ccc2ccccc2c1` (stereo not drawn) [Compound 551, N-(4-amino-3,4-dioxo-1-phenylbutan-2-yl)-1-(difluoromethyl)-3-(naphthalen-2-yl)-1H-pyrazole-4-carboxamide]: the IC50 was under 3 µM at Human Calpain 2/NS1; over 25 µM in experiment [1]; under 3 µM at Human Calpain 1/NS1; under 3 µM on Human Calpain 9/NS1; 10 to 25 µM in experiment [2] (setting [3]).
Take `Cc1noc(-c2ccccc2)c1C(=O)N[C@@H](Cc1ccccc1)C(=O)C(N)=O` [Compound 23, (S)—N-(4-amino-3,4-dioxo-1-phenylbutan-2-yl)-3-methyl-5-phenylisoxazole-4-carboxamide]: the IC50 at Human Calpain 2/NS1 (Column B) was under 3 µM; in experiment [1] (Column E), over 25 µM; at Human Calpain 1/NS1 (Column A), under 3 µM; at Human Calpain 9/NS1 (Column C), under 3 µM; in experiment [2] (setting [4]), 10 to 25 µM.
As to `COc1cccc(-n2nc(C)cc2C(=O)N[C@@H](Cc2ccccc2)C(=O)C(N)=O)n1` [Compound 99, (S)—N-(4-amino-3,4-dioxo-1-phenylbutan-2-yl)-1-(6-methoxypyridin-2-yl)-3-methyl-1H-pyrazole-5-carboxamide], the IC50 at Human Calpain 2/NS1 (Column B) is under 3 µM; in experiment [1] (Column E) it was 10 to 25 µM; on Human Calpain 1/NS1 (Column A), under 3 µM; on Human Calpain 9/NS1 (Column C) it was under 3 µM; in experiment [2] (setting [4]), 10 to 25 µM.
On to `Cn1cc(C(=O)NC(Cc2ccccc2)C(=O)C(N)=O)c(-c2cccc3c2OCO3)n1` (stereo not drawn) [Compound 514, N-(4-amino-3,4-dioxo-1-phenylbutan-2-yl)-3-(benzo[d][1,3]dioxol-4-yl)-1-methyl-1H-pyrazole-4-carboxamide], for which the IC50 at Human Calpain 2/NS1 was under 3 µM; in experiment [1], under 10 µM; at Human Calpain 1/NS1, under 3 µM; on Human Calpain 9/NS1 it was under 3 µM; in experiment [2] (setting [3]), over 25 µM.
For `Cn1cc(C(=O)NC(Cc2ccccc2)C(=O)C(N)=O)c(-c2cccc3c2OCCO3)n1` (stereo not drawn) [Compound 570, N-(4-amino-3,4-dioxo-1-phenylbutan-2-yl)-3-(2,3-dihydrobenzo[b][1,4]dioxin-5-yl)-1-methyl-1H-pyrazole-4-carboxamide], the IC50 at Human Calpain 2/NS1 was under 3 µM; in experiment [1], over 25 µM; at Human Calpain 1/NS1, under 3 µM; at Human Calpain 9/NS1, under 3 µM; in experiment [2] (setting [3]) it was over 25 µM.
Consider `Cc1cc(C)cc(C[C@H](NC(=O)c2cn(C)nc2-c2ccccc2)C(=O)C(N)=O)c1` [Compound 331], for which the IC50 at Human Calpain 2/NS1 is under 3 µM; in experiment [1], over 25 µM; on Human Calpain 1/NS1, under 3 µM; at Human Calpain 9/NS1 it was under 3 µM; in experiment [2] (setting [3]) it was under 10 µM.
With `N#Cc1ccc(-c2nn(C3CC3)cc2C(=O)NC(Cc2ccccc2)C(=O)C(N)=O)cn1` (stereo not drawn) [Compound 413, N-(4-amino-3,4-dioxo-1-phenylbutan-2-yl)-3-(6-cyanopyridin-3-yl)-1-cyclopropyl-1H-pyrazole-4-carboxamide], the IC50 was under 3 µM on Human Calpain 2/NS1; over 25 µM in experiment [1]; under 3 µM on Human Calpain 1/NS1; under 3 µM at Human Calpain 9/NS1; over 25 µM in experiment [2] (setting [3]).
Turning to `Cc1ccc(F)c(-c2oncc2C(=O)NC(Cc2ccccc2)C(=O)C(N)=O)c1` (stereo not drawn) [Compound 549, N-(4-amino-3,4-dioxo-1-phenylbutan-2-yl)-5-(2-fluoro-5-methylphenyl)isoxazole-4-carboxamide], the IC50 at Human Calpain 2/NS1 is under 3 µM; in experiment [1], under 10 µM; at Human Calpain 1/NS1, under 3 µM; on Human Calpain 9/NS1, under 3 µM; in experiment [2] (setting [3]), over 25 µM.
For `Cc1cc(C(=O)N[C@@H](Cc2ccccc2)C(=O)C(N)=O)n(-c2ccccc2)n1` [Compound 276, (S)—N-(4-amino-3,4-dioxo-1-phenylbutan-2-yl)-3-methyl-1-phenyl-1H-pyrazole-5-carboxamide], the IC50 on Human Calpain 2/NS1 (Column B) was under 3 µM; in experiment [1] (Column E) it was under 10 µM; at Human Calpain 1/NS1 (Column A) it was under 3 µM; at Human Calpain 9/NS1 (Column C), under 3 µM; in experiment [2] (setting [4]), under 10 µM.
